Data reported in patent US20260028364A1, “CATIONIC CHROMENONES AND THEIR USE IN ONCOLOGY” (FLORATEK PHARMA S.A., priority 2022, published 2026).

How the values were obtained:
[1] = test system: K562; test: CellTiter-Glo cell viability, K562; format: cell-based; conditions: Homo sapiens; K562 cells, 72 h with compound
Experimental: (§1) Antitumor activity against a panel of cancer cell lines Antitumor activity of the compounds was assessed by using the CellTiter-Glow® Luminescent Cell Viability assay (Promega #G7572) according to the manufacturer's instructions. The compounds were tested at 5 or 6 concentrations in 1:2 dilution increments (highest concentration 10 µM) in triplicate well conditions.
(§2) Tumor cells were grown at 37° C. in a humidified atmosphere with 5% CO2 in RPMI 1640 or DMEM medium, supplemented with 10% (v/v) fetal calf serum and 50 μg/ml gentamicin for up to 20 passages, and were passaged once or twice weekly. Cells were harvested using TrypLE or PBS buffer containing 1 mM EDTA, and the percentage of viable cells is determined using a cell counter.
(§3) Cells were harvested from exponential phase cultures, counted and plated in 96 well flat-bottom microtiter plates at a cell density depending on the cell line's growth rate (4,000-20,000 cells/well depending on the cell line's growth rate) in RPMI 1640 or DMEM medium supplemented with 10% (v/v) fetal calf serum and 50 μg/ml gentamicin (140 μl/well). Cultures were incubated at 37° C. and 5% CO2 in a humidified atmosphere. […] Viability of cells was quantified by the CellTiter-Glow® Luminescent Cell Viability assay (Promega #G7572). Luminescence was measured with the microplate luminometer (En Vision Perkin Elmer). […]

[2] = test system: NCI-H1975; test: CellTiter-Glo cell viability, NCI-H1975; format: cell-based; conditions: Homo sapiens, H-1975 cells, 72 h with compound
Experimental: as §1, §2, §3

[3] = test system: Daudi; test: CellTiter-Glo cell viability, Daudi; format: cell-based; conditions: Homo sapiens; Daudi cells, 72 h with compound
Experimental: as §1, §2, §3

[4] = test system: CHP-134; test: Caspase-Glo 3/7 apoptosis assay, CHP-134; format: cell-based; conditions: CHP-134 cells, 3.16 μM, 24 h
Experimental: (§4) Apoptosis activity was evaluated using Caspase-Glo 3/7 Assay kit (Promega-G8091) according to the manufacturer's instructions. Cells were grown as above and harvested from exponential phase cultures, counted and plated in 96 black well flat-bottom microtiter plates at a cell density depending on the cell line's growth rate (3,000-10,000 cells/well depending on the cell line's growth rate). Following an overnight incubation, compounds were added to the cell plates at various concentrations (highest at […]) with the DMSO concentration maintained at 0.1% for a 24 h period treatment. 100 μL of Caspase-Glo 3/7 Reagent was added to each well of 96-well plate containing 100 μL culture medium, and after 30 min at room temperature, luminescence was measured with the microplate luminometer (EnVision Perkin Elmer). The induced relative Caspase 3/7 activity of the tested compounds was determined by the following formula: Relative Caspase 3/7 activity (fold increase)=(RLU compound−RLU blank)/(RLU control−RLU blank).

[5] = test system: DMS-114; test: Caspase-Glo 3/7 apoptosis assay, DMS-114; format: cell-based; conditions: DMS-114 cells, 10 μM, 24 h
Experimental: as §4

[6] = test system: MeWo; test: Caspase-Glo 3/7 apoptosis assay, MeWo; format: cell-based; conditions: MeWo cells, 10 μM, 24 h
Experimental: as §4

[7] = test system: Wnt/Beta-Catenin; test: SelectScreen CellSensor pathway inhibition, Wnt/Beta-Catenin; format: cell-based; conditions: Homo sapiens, HCT-116; LEF-TCF-bla HCT116, no stimulus (constitutively activated)
Experimental: Inhibition of various cellular pathways known to be involved in malignancy was tested using the SelectScreen Cell-based Pathway Profiling GeneBLAzer™ cell signaling pathway specific CellSensor™ cell lines ((Thermo Fisher). The assay is based on a beta-lactamase reporter activity which is modulated and can be measured quantitatively and selectively with the LiveBLAzer™-FRET B/G Loading Substrate. SelectScreen Cell-Based Pathway Profiling Service uses XLfit from IDBS. The dose response curve is curve fit to model number 205 (sigmoidal dose-response model). Custom logic was built by Thermo Fisher for the data analysis tool to address the different compound characteristics that can be observed with functional assays.
Wnt/Beta-Catenin—LEF-TCF-bla HCT116—Inhibitor Screen, Constitutively Activated
LEF-TCF-bla HCT116 cells are thawed and resuspended in Assay Media (OPTI-MEM, 0.5% dialyzed FBS, 0.1 mM NEAA, 1 mM Sodium Pyruvate, 100 U/mL/100 μg/mL Pen/Strep) to a concentration of 312,500 cells/mL. 32 μL of cell suspension is added to each well of a 384-well Poly-D-Lysine assay plate. Cells in Assay Media are incubated for 16-24 hours in the plate at 37° C./5% CO2 in a humidified incubator. 4 μL of a 10× serial dilution of ICG-001 (control inhibitor starting concentration, 25,000 nM) or compounds are added to appropriate wells of the plate. […] The plate is read on a fluorescence plate reader.

[8] = Tolerability in the A2058 xenograft study; format: in vivo, Balb-c/nude mouse; conditions: peritumoral QOD; resolved after the treatment was stopped
Experimental: Each Balb-c/nude mouse was inoculated subcutaneously at the right flank with A2058 melanoma tumor cells (5×10^6+Matrigel) in 0.2 ml of PBS for tumor development. 10 animals per group were randomized when the average tumor volume reached 74 mm^3. Test compounds were prepared as DMSO stocks and diluted in the injection vehicle before administration. The treatment was administered every other day (QOD) as a peritumoral injection. Vehicle composition was 4% DMSO, 5% ethanol, 20% PEG200, 71% saline. Dosing volume for all groups: 5 mL/kg.
Body weight and clinical signs were monitored throughout the study.

IC50 [1]: 14 nM
IC50 [2]: 140 nM
IC50 [3]: 710 nM
IC50 [7]: 970 nM
Structure (SMILES): COc1ccc2c(=O)c(-c3ccc(CCCC[P+](c4ccccc4)(c4ccccc4)c4ccccc4)cc3)coc2c1OC.[Br-] [SND470, (4-(4-(7,8-Dimethoxy-4-oxo-4H-chromen-3-yl)phenyl)butyl)triphenylphosphonium bromide]
Fold activation of Caspase 3/7 [4]: 7.02 Fold
Fold activation of Caspase 3/7 [5]: 3.32 Fold
Fold activation of Caspase 3/7 [6]: 2.55 Fold
finding at the site of the injection [8]: slight scabbing at the site of the injection
